Laboratory results reported in ChEMBL document CHEMBL1268895, “Synthesis of exotic polycycles such as cyclooctatrienes and fenestrenes with differential pro-apoptotic activities on human TRAIL-resistant metastatic cell lines” (Bioorg Med Chem Lett, 2010).
Each block holds one compound with its values, some of them ahead of it.

What was measured:
[1] = tested on: SW-620; assay: Induction of apoptosis in TRAIL-resistant human SW620 cells assessed as pro-apoptotic cells at 50 uM after 24 hrs by annexin-V staining; format: functional
[2] = tested on: THP-1; assay: Induction of apoptosis in TRAIL-resistant human THP1 cells assessed as pro-apoptotic cells at 50 uM after 24 hrs by annexin-V staining; format: functional
[3] = tested on: THP-1; assay: Induction of apoptosis in TRAIL-resistant human THP1 cells after 24 hrs by annexin-V staining; format: functional, cell-based; details: THP-1, 24 h
[4] = tested on: THP-1; assay: Induction of apoptosis in TRAIL-resistant human THP1 cells assessed as inhibition of caspase-8 activity; format: functional

EC50 [3]: 32.4 µM
SMILES: CC(C)CC(O)(CC(C)C)[C@@H]1/C=C\C=C(\CO)C2=C([C@H]3OC(C)(C)O[C@@H]23)[C@H]1c1ccccc1 (relative stereo)
Activity [1]: 66%
Activity [2]: 97%

SMILES: CCCCC1(CCCC)O[C@H]2C=C(CO)[C@]3(O)[C@@H]4OC(C)(C)O[C@@]45CCC[C@@H]4[C@@H]1[C@@H]2[C@@]453
Activity [1]: 5%
Activity [2]: 15%

SMILES: CC(C)CC1(CC(C)C)O[C@H]2C=C(CO)[C@]3(O)[C@@H]4OC(C)(C)O[C@@]45CCC[C@@H]4[C@@H]1[C@@H]2[C@@]453
Activity [1]: 13%
Activity [2]: 83%

SMILES: CC1(C)O[C@@H]2[C@]3(CCC[C@@H]4[C@H]5CO[C@H]6C=C(CO)[C@@]2(O)[C@]43[C@@H]56)O1
Activity [1]: 4%
Activity [2]: 94%

SMILES: CCCCCC1(CCCCC)O[C@H]2C=C(CO)[C@]3(O)[C@@H]4OC(C)(C)O[C@@]45CCC[C@@H]4[C@@H]1[C@@H]2[C@@]453
Activity [1]: 5%
Activity [2]: 5%

SMILES: CC1=C(O)C(=O)C=C2C1=CC=C1[C@@]2(C)CC[C@@]2(C)[C@@H]3C[C@](C)(C(=O)O)CC[C@]3(C)CC[C@]12C [CELASTROL]
Activity [1]: 99%
Activity [2]: 99%
EC50 [3]: 15 µM
inhibition (INH) [4]: 90%

SMILES: CC1(C)O[C@H]2C3=C4[C@@H](CCC[C@@]42O1)[C@H](C(C)(C)O)/C=C\C=C/3CO
Activity [1]: 12%
Activity [2]: 2%

EC50 [3]: 49.3 µM
SMILES: CC1(C)O[C@@H]2C3=C(/C(CO)=C\C=C/[C@@H](CCc4ccccc4)[C@@H]3c3ccccc3)[C@@H]2O1 (relative stereo)
Activity [1]: 58%
Activity [2]: 98%

SMILES: CC1(C)O[C@@H]2C3=C(/C(CO)=C\C=C/[C@@H](C(C)(C)O)[C@@H]3c3ccccc3)[C@@H]2O1 (relative stereo)
Activity [1]: 15%
Activity [2]: 2%

EC50 [3]: 52.9 µM
SMILES: CCCCCC[C@@H]1/C=C\C=C(\CO)C2=C([C@H]3OC(C)(C)O[C@@H]23)[C@H]1c1ccccc1
Activity [1]: 70%
Activity [2]: 97%

SMILES: CC1(C)O[C@H]2C3=C4[C@@H](CCCC[C@@]42O1)[C@H](CCc1ccccc1)/C=C\C=C/3CO
Activity [1]: 23%
Activity [2]: 10%

SMILES: CC1(C)O[C@@H]2[C@]3(CCC[C@@H]4[C@@H]5[C@H]6[C@H](C=C(CO)[C@@]2(O)[C@]643)OC5(C)C)O1
Activity [1]: 4%
Activity [2]: 29%

SMILES: CC1(C)O[C@H]2C3=C4[C@@H](CCCC[C@@]42O1)[C@H](C1(O)CCCC1)/C=C\C=C/3CO
Activity [1]: 22%
Activity [2]: 2%

SMILES: CC1(C)O[C@@H]2C3=C(/C(CO)=C\C=C/[C@@H](C4(O)CCCCC4)[C@@H]3c3ccccc3)[C@@H]2O1
Activity [1]: 10%
Activity [2]: 3%

SMILES: CC1(C)O[C@H]2C3=C4[C@@H](CCCC[C@@]42O1)[C@H](C(C)(C)O)/C=C\C=C/3CO
Activity [1]: 16%
Activity [2]: 2%

SMILES: CC1(C)O[C@@H]2C3=C(/C(CO)=C\C=C/[C@@H](C4(O)CCCC4)[C@@H]3c3ccccc3)[C@@H]2O1
Activity [1]: 12%
Activity [2]: 3%

SMILES: CC1(C)O[C@H]2C3=C4[C@@H](CCCC[C@@]42O1)[C@H](C1(O)CCCCC1)/C=C\C=C/3CO
Activity [1]: 17%
Activity [2]: 2%

SMILES: CCCCCC[C@@H]1/C=C\C=C(\CO)C2=C3[C@H]1CCCC[C@@]31OC(C)(C)O[C@@H]21
Activity [1]: 70%
Activity [2]: 20%
inhibition (INH) [4]: 90%

SMILES: CC(C)CC(O)(CC(C)C)[C@@H]1/C=C\C=C(\CO)C2=C3[C@H]1CCCC[C@@]31OC(C)(C)O[C@@H]21
Activity [1]: 68%
Activity [2]: 36%
inhibition (INH) [4]: 90%
